Source: patent US20050074879A1, “Antisense oligonucleotide modulation of STAT3 expression” (priority 2000, published 2005)
Oligonucleotides are written 5' to 3', each unit as a sugar letter and its base; * is a phosphorothioate linkage, no mark a phosphodiester; rarer units and linkages stand in square brackets, end groups in braces. Plain capitals give the bases only. e = 2'-O-(2-methoxyethyl) (MOE); [5mC] = 5-methylcytosine; d = 2'-deoxy (DNA)

Assays:
Mouse STAT3 protein = assay: STAT3 protein levels in BCL1 cells by Western blot, dose response; type: cell-based
Procedure: ISIS 17152 (SEQ ID. NO. 99) was chosen for further study. The effect of this oligonucleotide on protein levels was determined by Western blot. ISIS 23177 (SEQ ID NO. 106), a 3 base mismatch, was used as a control. BCL1 cells were grown, treated and processed as described in Example 2.
Nuclear extracts from primary B cells and B lymphoma cell lines were prepared as described in Karras, J. G., et al. (J. Exp. Med., 1997, 185, 1035-1042).
Western blotting was performed as described in Karras, J. G. et al. (J. Immunol., 1996, 157, 2299). STAT1 and STAT3 antibodies were obtained from UBI (Lake Placid, N.Y.).

MIP1b mRNA = assay: Induction of chemokines in BCL1 cells, RNase protection assay: MIP1b; type: cell-based, mouse; details: CpG oligonucleotide induced
Procedure: (§1) The effect of ISIS 17152 (SEQ ID. NO. 99) on chemokine levels was determined. BCL1 cells were grown, treated and processed as described in Example 2. Chemokine gene expression was induced in BCL1 cells by addition of […] of a CpG-containing oligonucleotide to the media 16 hours following antisense oligonucleotide electroporation. CpG-containing oligonucleotides are immune-stimulatory (Krieg, A. M., et al., Nature, 1995, 374, 546-549). The levels of chemokines were measured eight hours later using RNase protection assay as described in Example 2 with a mouse chemokine template set, Mck-5 (Pharmingen, San Diego, Calif.).

MIP1a mRNA = assay: Induction of chemokines in BCL1 cells, RNase protection assay: MIP1a; type: cell-based, mouse; details: CpG oligonucleotide induced
Procedure: as §1

[1] = system: IgM secretion by BCL1 cells; assay: BCL1 IgM secretion, ELISA; type: cell-based, mouse
Procedure: The effect of ISIS 17152 (SEQ ID. NO. 99) on IgM secretion levels was determined. STAT3 has been implicated in regulation of IgM expression (Faris, M., et al., Immunology, 1997, 90, 350-357). BCL1 cells were grown, treated and processed as described in Example 2.
1×10^6 BCL1 cells were incubated in 12-well plates in 2 mL complete RPMI following electroporation. Supernatant was replaced at 24 hour post electroporation with fresh medium. 48 hours later, supernatants were harvested, centrifuged to remove cells, and assayed for IgM content using the OPT-EIA™ ELISA kit (Pharmingen, San Diego, Calif.) and capture and detecting antibodies for mouse IgM (Southern Biotechnology, Birmingham, Ala.).

Human STAT3 mRNA [2] = assay: Inhibition of human STAT3 mRNA expression in U266 cells, Northern blot; type: cell-based; details: for % mRNA INHIBITION / % mRNA EXPRESSION: U266 cells, 2.5 μM oligonucleotide, electroporation, 24 hours; for % mRNA EXPRESSION: percent of control
Procedure: U266 human myeloma cell lines (originally obtained from American Type Culture Collection) were maintained in RPMI 1640 medium supplemented with 10% fetal calf serum. Cells (15×10^6 cells in PBS) were transfected with oligonucleotides at 200V with a single 6-millisecond pulse using a BTX Electro Square Porator T820 (Genetronics, San Diego Calif.). The cells were incubated for 24 hours before RNA extraction.
Total cellular RNA was isolated using the Rneasy kit (Qiagen, Santa Clarita, Calif.). Northern blotting was perfomed on 15 μg of RNA using a cDNA probe prepared from MB-MDA 468 RNA by standard RT-PCR followed by a nested primer reaction. Signals were quantitated using a Molecular Dynamics Phosphorimager.
In order to examine the importance of STAT3 expression in multiple myeloma cells, a series of 20mer STAT3 antisense oligonucleotides were designed and synthesized, using phosphorothioate chemistry and incorporating 2′-O-methoxyethyl modifications to improve hybridization affinity and nuclease resistance.

Mouse STAT3 mRNA = assay: Inhibition of mouse STAT3 mRNA expression in BCL1 cells (electroporation; RNase protection/Northern blot); type: cell-based; set-up: % mRNA INHIBITION: dose or concentration left out as unconfirmed; details: BCL1 cells electroporated with oligonucleotide, RNA collected 24 hours later
Procedure: The B lymphoma cell line, BCL1 was obtained from ATCC (Rockville, Md.). BCL1 cells were cultured in RPMI 1640 medium.
BCL1 cells (5×10^6 cells in PBS) were transfected with oligonucleotides by electroporation, at 200V, […]. using a BTX Electro Cell Manipulator 600 (Genetronics, San Diego, Calif.). For an initial screen, BCL1 were electroporated with […] oligonucleotide and RNA collected 24 hours later. Controls without oligonucleotide were subjected to the same electroporation conditions.
Total cellular RNA was isolated using the RNEASY7 kit (Qiagen, Santa Clarita, Calif.). RNAse protection experiments were conducted using RIBOQUANT™ kits and template sets according to the manufacturer's instructions (Pharmingen, San Diego, Calif.). Northern blotting was performed as described in Chiang, M-Y. et al. (J. Biol. Chem., 1991, 266, 18162-18171), using a rat cDNA probe prepared by Xho I/Sal I restriction digest of psvsport-1 plasmid (ATCC, Rockville, Md.). mRNA levels were quantitated using a PhosphorImager (Molecular Dynamics, Sunnyvale, Calif.).

BCL1 cells = assay: BCL1 cell proliferation, [3H]-thymidine incorporation; type: cell-based, mouse; details: BCL1 cells; for % Cell Proliferation: 48 hours after electroporation
Procedure: The effect of ISIS 17152 (SEQ ID NO. 99) on BCL1 proliferation was determined. BCL1 cells contain constitutively active STAT3 which is thought to be responsible for their proliferation. BCL1 cells were grown, treated and processed as described in Example 2.
1×10^5 BCL1 cells were incubated in 96-well plates in […] complete RPMI following electroporation. Cultures were pulsed with […] of [^3H]-thymidine for the last 8 hours of culture and cells were harvested and analyzed for thymidine incorporation as described in Francis, D. A. et al. (Int. Immunol., 1995, 7, 151-161) 48 hours after electroporation.

RANTES mRNA = assay: Induction of chemokines in BCL1 cells, RNase protection assay: RANTES; type: cell-based, mouse; details: CpG oligonucleotide induced
Procedure: as §1

[3] = system: U266 multiple myeloma cells; assay: Apoptosis of U266 cells, Annexin-V staining, flow cytometry; type: cell-based, human
Procedure: U266 cells (ATCC, Bethesda, Md.) were cultured in RPMI 1640 medium supplemented with 10% heat-inactivated fetal bovine serum (Sigma Chemical Company, St. Louis, Mo.), 10 mM Hepes, pH 7.2, […] 2-ME, 2mM L-glutamine, 100 U/ml penicillin, and 100 µg/ml streptomycin (Gibco, Grand Island, N.Y.).
2′-O-methoxyethylribose modified phosphorothioate oligonucleotides were synthesized on an automated DNA synthesizer (Applied Biosystems model 380B), as described above. Chimeric oligonucleotides were employed in these studies; the chimeric oligonucleotides contain 2′-O-methoxyethyl modified residues flanking a 2′-deoxynucleotide/phosphorothioate region (gap) that supports RNase H activation. Oligonucleotides were analyzed by capillary gel electrophoresis and judged to be at least 85% full-length material. U266 (1×10^7 cells in PBS) were transfected with oligonucleotides by electroporation, at 175V, 1000 μF using a BTX Electro Cell Manipulator 600 (Genetronics, San Diego, Calif.).
10×10^6 U266 cells were electroporated with oligonucleotides and cultured for 48 hours before analysis of phosphatidylserine expression was performed as a measure of apoptosis using the Annexin-V staining kit (Clontech, Palo Alto, Calif.) according to the manufacturer's instructions. […] The samples were then diluted with FacsFlow buffer and analyzed on a Becton Dickinson FACScan (Mountain View, Calif.).

Human STAT3 mRNA [4] = assay: STAT3 mRNA in A549 cells treated with dsRNAs (duplex antisense compounds), real-time PCR PPS 199 (Table 22); type: cell-based; details: treated 4 hours, harvested 16 hours later, − decrease, + increase vs untreated control
Procedure: When cells reached 80% confluency, they are treated with duplexed antisense compounds of the invention. For cells grown in 96-well plates, wells are washed once with […] OPTI-MEM-1 reduced-serum medium (Gibco BRL) and then treated with 130 μL of OPTI-MEM-1 containing 12 μg/mL LIPOFECTIN (Gibco BRL) and the desired duplex antisense compound at a final concentration of 200 nM (a ratio of 6 μg/mL LIPOFECTIN per 100 nM duplex antisense compound). After 5 hours of treatment, the medium is replaced with fresh medium. Cells are harvested 16 hours after treatment, at which time RNA is isolated and target reduction measured by RT-PCR.
The compounds in Table 21 were tested for their effects on human STAT3 expression in A549 cells. ISIS 330249 targets the same site as the antisense oligonucleotid ISIS 106734 (SEQ ID NO: 45) and ISIS 330247 targets the same site as the antisense oligonucleotide ISIS 113176 (SEQ ID NO: 115); thus, ISIS 106734 and ISIS 113176 were also tested. A549 cells were treated with oligonucleotide mixed with LIPOFECTIN (Invitrogen Corporation, Carlsbad, Calif.) as described herein. The control oligonucleotide used was ISIS 129698 ([…], SEQ ID NO: 402). Cells were treated with oligonucleotide for 4 hours and harvested an additional 16 hours later. Untreated cells served as a control.
Human STAT3 mRNA expression levels were quantitated by real-time PCR using primer probe set PPS 199 and gene target quantities were normalized using Ribogreen as described in other examples herein. A “−” or “+” designation indicates a decrease or increase of STAT 3 mRNA expression, respectively, relative to untreated control cells. Where present, “N.D.” indicates not determined.

17152 (antisense eA*eA*eA*eA*eA*dG*dT*dG*dC*dC*dC*dA*dG*dA*dT*eT*eG*e[5mC]*e[5mC]*e[5mC]) [compound 17152]
% protein Expression (Mouse STAT3 protein; dose 10 nM): 41.7% | % protein Inhibition (Mouse STAT3 protein; dose 10 nM): 58.3% | % protein Expression (Mouse STAT3 protein; dose 15 nM): 42.5% | % protein Inhibition (Mouse STAT3 protein; dose 15 nM): 57.5% | % protein Expression (Mouse STAT3 protein; dose 20 nM): 26.5% | % protein Inhibition (Mouse STAT3 protein; dose 20 nM): 73.5% | % MIP1b mRNA (MIP1b mRNA; dose 5 nM): 133% | % MIP1b mRNA (MIP1b mRNA; dose 10 nM): 150% | % MIP1b mRNA (MIP1b mRNA; dose 20 nM): 159% | % MIP1a mRNA (MIP1a mRNA; dose 5 nM): 201% | % MIP1a mRNA (MIP1a mRNA; dose 10 nM): 258% | % MIP1a mRNA (MIP1a mRNA; dose 20 nM): 254% | % IgM Expression ([1]; dose 5 nM): 34.2% | % IgM Inhibition ([1]; dose 5 nM): 65.8% | % IgM Expression ([1]; dose 15 nM): 23.1% | % IgM Inhibition ([1]; dose 15 nM): 76.9% | % mRNA INHIBITION (Human STAT3 mRNA [2]): 17.5% | % mRNA EXPRESSION (Human STAT3 mRNA [2]): 82.5% | % mRNA INHIBITION (Mouse STAT3 mRNA): 75% | % mRNA EXPRESSION (Mouse STAT3 mRNA; control 100%): 25% | % Cell Inhibition (BCL1 cells; dose 10 nM): 21.5% | % Cell Proliferation (BCL1 cells; dose 10 nM): 78.5% | % Cell Inhibition (BCL1 cells; dose 15 nM): 45.6% | % Cell Proliferation (BCL1 cells; dose 15 nM): 54.4% | % Cell Inhibition (BCL1 cells; dose 20 nM): 49.8% | % Cell Proliferation (BCL1 cells; dose 20 nM): 50.2% | % RANTES mRNA (RANTES mRNA; dose 5 nM, control 100%): 236% | % RANTES mRNA (RANTES mRNA; dose 10 nM): 266% | % RANTES mRNA (RANTES mRNA; dose 20 nM): 257%

23178 (antisense eA*eA*eA*eA*eA*dC*dT*dC*dC*dG*dC*dT*dG*dA*dA*eT*eG*e[5mC]*e[5mC]*e[5mC]) [compound 23178]
% MIP1b mRNA (MIP1b mRNA; dose 5 nM): 96.5% | % MIP1b mRNA (MIP1b mRNA; dose 10 nM): 87.1% | % MIP1b mRNA (MIP1b mRNA; dose 20 nM): 73.3% | % MIP1a mRNA (MIP1a mRNA; dose 5 nM): 123% | % MIP1a mRNA (MIP1a mRNA; dose 10 nM): 116% | % MIP1a mRNA (MIP1a mRNA; dose 20 nM): 106% | % RANTES mRNA (RANTES mRNA; dose 5 nM, control 100%): 96% | % RANTES mRNA (RANTES mRNA; dose 10 nM): 70.2% | % RANTES mRNA (RANTES mRNA; dose 20 nM): 56%

113176 (antisense eG*e[5mC]*eT*e[5mC]*e[5mC]*dA*dG*d[5mC]*dA*dT*d[5mC]*dT*dG*d[5mC]*dT*eG*e[5mC]*eT*eT*e[5mC]) [compound 113176]
Percent inhibition of STAT3 expression (Human STAT3 mRNA [2]; Oligo concentration 2.5 μM): 33% | Percent inhibition of STAT3 expression (Human STAT3 mRNA [2]; Oligo concentration 5 μM): 67% | Percent inhibition of STAT3 expression (Human STAT3 mRNA [2]; Oligo concentration 10 μM): 79% | % mRNA INHIBITION (Human STAT3 mRNA [2]): 27.7% | % mRNA EXPRESSION (Human STAT3 mRNA [2]): 72.3% | annexin V staining (in words) [3]: increased levels of annexin V staining | Percent change in STAT3 mRNA expression in A549 cells by duplex antisense compounds (Human STAT3 mRNA [4]; 12.5 nM oligonucleotide): +8% | Percent change in STAT3 mRNA expression in A549 cells by duplex antisense compounds (Human STAT3 mRNA [4]; 25 nM oligonucleotide): +17% | Percent change in STAT3 mRNA expression in A549 cells by duplex antisense compounds (Human STAT3 mRNA [4]; 50 nM oligonucleotide): +6% | Percent change in STAT3 mRNA expression in A549 cells by duplex antisense compounds (Human STAT3 mRNA [4]; 100 nM oligonucleotide): 0% | Percent change in STAT3 mRNA expression in A549 cells by duplex antisense compounds (Human STAT3 mRNA [4]; 200 nM oligonucleotide): −22% | Percent change in STAT3 mRNA expression in A549 cells by duplex antisense compounds (Human STAT3 mRNA [4]; 400 nM oligonucleotide): −34%
